From patent US9629822B2, “Flavonoid based antiviral targets” (UNIVERSITY OF CENTRAL FLORIDA RESEARCH FOUNDATION, INC., priority 2012, dated 2017) come the findings set out here.

For one series, the target named is T1, US28 receptor (Human cytomegalovirus, UniProt P69332).
T1 construct: expressed in transfected cells; host or cells: HEK 293T cells, transiently transfected
In words: PathDetect trans Elk1 luciferase reporter gene assay in US28-transfected 293T HEK cells. The conditions noted are these: for type of activity on the US28 receptor (agonist / inverse agonist / none), in words: Elk1 reporter, US28-transfected HEK cells. Format: cell-based, Human Cytomegalovirus (HCMV). Summed up: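 HEK293T cells transiently transfected with Elk1, Luc and US28 vector (empty pcDNA3 for mock) were dosed with compounds in DMEM/1% FBS with 1% DMSO for 20-24 h at 37° C. Bright-Glo luminescence decrease was read; EC50 is halfway between maximal response and no-compound control, by non-linear regression.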
(In general: A reporter such as luciferase makes a cellular process visible.)

[1] abbreviates: EC50 (μM), 293T HEK cells transiently expressing US28, Elk1 reporter, NE = no effect when tested at 10 μM of compound.
Where [2] appears, read: 293T HEK cells transiently expressing US28, Elk1 reporter, NE = no effect when tested at 10 μM of compound.

T1 sequence (P69332 whole entry): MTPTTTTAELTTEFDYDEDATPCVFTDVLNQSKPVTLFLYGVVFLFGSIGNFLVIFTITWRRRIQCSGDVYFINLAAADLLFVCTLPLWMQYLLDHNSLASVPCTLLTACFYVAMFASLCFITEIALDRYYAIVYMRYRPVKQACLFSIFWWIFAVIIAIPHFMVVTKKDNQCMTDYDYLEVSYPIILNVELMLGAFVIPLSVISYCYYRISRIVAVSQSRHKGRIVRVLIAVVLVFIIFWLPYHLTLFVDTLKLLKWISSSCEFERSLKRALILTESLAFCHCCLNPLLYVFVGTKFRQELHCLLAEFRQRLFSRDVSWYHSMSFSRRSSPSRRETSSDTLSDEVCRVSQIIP

A word on the melting point: it is the temperature, or range, at which the solid turns liquid. Usually EC50 stands for the midpoint of the concentration-response curve. With `COc1ccc(Cl)cc1-c1oc2ccccc2c(=O)c1O` [Compound 9h, 2-(5-chloro-2-methoxyphenyl)-3-hydroxy-4H-chromen-4-one], the melting point lay in the range of 160 to 167 °C. This compound also showed a 50% effective concentration (EC50) on US28 receptor (setting [1]) of 1.32 µM. In addition, at US28 receptor, the “type of activity on the US28 receptor (agonist / inverse agonist / none), in words” value is on record as “inverse agonist”.

Regarding `COc1ccccc1-c1oc2ccccc2c(=O)c1O` [Compound 9a, 3-Hydroxy-2-(2-methoxyphenyl)-4H-chromen-4-one], the EC50 at US28 receptor (setting [1]) turned out to be 4.6 µM. Further, the “type of activity on the US28 receptor (agonist / inverse agonist / none), in words” value on US28 receptor was “inhibited US28 receptor constitutive activity”. Moreover, the “Efficacy(%)” value at US28 receptor (maximum intrinsic activity from dose-response curve, negative = inverse agonism) is recorded as −19%. The Emax on US28 receptor (read-out: Efficacy(%), maximum intrinsic activity from dose-response curve, negative = inverse agonism) was -19%.

In turn, `COc1ccc(Br)cc1/C=C/C(=O)c1ccc2ccccc2c1O` [Compound 8m, (E)-3-(5-bromo-2-methoxyphenyl)-1-(1-hydroxynaphthalen-2-yl)prop-2-en-1-one] registered a melting point of 117 to 127 °C. In addition, it took 2.88 µM to reach a half-maximal effect on US28 receptor (pEC50 ± SEM, 293T HEK cells transiently expressing US28, Elk1 reporter) (EC50).

In turn, `COc1ccc(Br)cc1-c1cc(=O)c2c(O)cccc2o1` [Compound 12b, 2-(5-Bromo-2-methoxyphenyl)-5-hydroxy-4H-chromen-4-one] came in with a melting point of 175 to 180 °C. In addition, the EC50 at US28 receptor (setting [2]) was over 10 µM. Moreover, the concentration giving a half-maximal response (EC50) on US28 receptor (setting [1]) was over 10 µM.

Regarding `COc1ccc(Br)cc1/C=C/C(=O)c1c(O)cccc1OCc1ccccc1` [Compound 8l, (E)-1-(2-(Benzyloxy)-6-hydroxyphenyl)-3-(5-bromo-2-methoxyphenyl)prop-2-en-1-one], at US28 receptor (setting [2]), the “EC50 (μM)” value is recorded as “Toxic”.

As for `COc1ccc(Br)cc1-c1oc2ccccc2c(=O)c1O` [Compound 9b, 2-(5-Bromo-2-methoxyphenyl)-3-hydroxy-4H-chromen-4-one], the melting point is 159 to 161 °C. At US28 receptor (setting [2]), this compound gave an EC50 of over 10 µM. Further, the EC50 on US28 receptor (setting [1]) was over 10 µM. Besides, the “type of activity on the US28 receptor (agonist / inverse agonist / none), in words” value on US28 receptor was “did not show any activity”.

Turning to `COc1ccccc1-c1cc(=O)c2c(O)cccc2o1` [Compound 12a, 5-Hydroxy-2-(2-methoxyphenyl)-4H-chromen-4-one], the concentration giving a half-maximal response (EC50) at US28 receptor (setting [2]) and at US28 receptor (setting [1]) was over 10 µM in each case.
